Here are results for 6 compounds from ChEMBL document CHEMBL1201862, “PubChem BioAssay data set” (2004).

Assay [1] has as its target 26S proteasome non-ATPase regulatory subunit 14 (Homo sapiens, UniProt O00487). Kind of assay: inhibition of proteasome subunit RPN11 – biochemical, fluorescence polarization, uHTS hits, confirmation (AID 602368). The assay is classed as functional. On the technique in general: Fluorescence polarisation rises when a labelled molecule tumbles more slowly, as on binding a larger partner.

Another assay addresses Prothrombin (Bos taurus, UniProt P00735). Kind of assay: thrombin protease inhibitors – biochemical, fluorescence polarization, uHTS hits, dose response (AID 602369). The class given is functional.
Assay [2] has as its target Dual specificity tyrosine-phosphorylation-regulated kinase 1A (Rattus norvegicus, UniProt Q63470). The assay is classed as biochemical, Homo sapiens.
For assay [3], the target named is 72 kDa type IV collagenase (Homo sapiens, UniProt P08253). The assay can be described thus: Dose Response validation of uHTS RPN11 inhibitor hits using a MMP-2 Fluorescence assay. The assay is classed as functional.
Chain of 72 kDa type IV collagenase (P08253 whole entry): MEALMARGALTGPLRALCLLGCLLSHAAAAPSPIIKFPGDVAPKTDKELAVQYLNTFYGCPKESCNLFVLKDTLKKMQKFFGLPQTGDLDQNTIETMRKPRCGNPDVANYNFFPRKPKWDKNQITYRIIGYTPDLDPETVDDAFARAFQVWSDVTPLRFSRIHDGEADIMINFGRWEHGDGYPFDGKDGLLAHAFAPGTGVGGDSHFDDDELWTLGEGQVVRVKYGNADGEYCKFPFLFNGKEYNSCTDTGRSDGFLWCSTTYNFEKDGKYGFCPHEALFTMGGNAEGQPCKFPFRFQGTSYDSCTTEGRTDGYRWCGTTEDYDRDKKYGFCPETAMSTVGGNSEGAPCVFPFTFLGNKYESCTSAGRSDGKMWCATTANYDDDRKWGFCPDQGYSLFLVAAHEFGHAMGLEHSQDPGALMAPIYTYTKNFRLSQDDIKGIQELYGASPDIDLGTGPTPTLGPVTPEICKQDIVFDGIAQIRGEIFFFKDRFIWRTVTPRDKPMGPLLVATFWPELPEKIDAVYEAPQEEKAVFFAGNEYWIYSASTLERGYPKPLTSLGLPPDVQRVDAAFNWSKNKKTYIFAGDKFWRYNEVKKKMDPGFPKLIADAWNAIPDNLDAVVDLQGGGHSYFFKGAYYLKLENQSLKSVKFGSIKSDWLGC
The next assay deals with HeLa. Kind of assay: viability loss in HeLa cells – cell-based, 24 h, cherry-picked samples, cytotoxicity control, dose response (AID 504726).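 Note: potency for cytotoxicity as loss of luminescence signal.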 The class given is functional. To be noted: Homo sapiens.
Assay [4] can be described thus: loss of viability in HepG2 cells – cell-based, CellTiter-Glo, cherry-picked, cytotoxicity control for Shn3 inhibitor project, dose response (AID 624134). The class given is functional. On the technique in general: ATP-based viability assays read luminescence as a measure of living cells.
The nature of assay [5]: non-specific 3'UTR reporter inhibition in Clone20-Shn3RL – cell-based, Renilla luciferase, cherry-picked, counter-screen for Shn3 inhibitor project, dose response (AID 624133). The assay is classed as functional. (The purpose of a counterscreen is to sort out artefacts and off-target activity.)
Assay [6] is described as follows: viability loss in THP-1 monocytes – THP-1 cells, cytotoxicity control for Vif-APOBEC3G degradation inhibitor project, dose response (AID 1117359). The class given is functional. The following applies: THP-1.
Assay [7] deals with T1, Fatty acid synthase (Homo sapiens, UniProt P49327). The assay can be described thus: inhibition of human FAS-TE enzyme activity – biochemical, endpoint fluorescence intensity, uHTS hits, dose response (AID 624327).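 Note: fluorescence from hydrolysis of an O-methyl fluorescein acyl ester substrate by the enzyme.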 The assay is classed as functional.
T1 sequence (P49327 whole entry): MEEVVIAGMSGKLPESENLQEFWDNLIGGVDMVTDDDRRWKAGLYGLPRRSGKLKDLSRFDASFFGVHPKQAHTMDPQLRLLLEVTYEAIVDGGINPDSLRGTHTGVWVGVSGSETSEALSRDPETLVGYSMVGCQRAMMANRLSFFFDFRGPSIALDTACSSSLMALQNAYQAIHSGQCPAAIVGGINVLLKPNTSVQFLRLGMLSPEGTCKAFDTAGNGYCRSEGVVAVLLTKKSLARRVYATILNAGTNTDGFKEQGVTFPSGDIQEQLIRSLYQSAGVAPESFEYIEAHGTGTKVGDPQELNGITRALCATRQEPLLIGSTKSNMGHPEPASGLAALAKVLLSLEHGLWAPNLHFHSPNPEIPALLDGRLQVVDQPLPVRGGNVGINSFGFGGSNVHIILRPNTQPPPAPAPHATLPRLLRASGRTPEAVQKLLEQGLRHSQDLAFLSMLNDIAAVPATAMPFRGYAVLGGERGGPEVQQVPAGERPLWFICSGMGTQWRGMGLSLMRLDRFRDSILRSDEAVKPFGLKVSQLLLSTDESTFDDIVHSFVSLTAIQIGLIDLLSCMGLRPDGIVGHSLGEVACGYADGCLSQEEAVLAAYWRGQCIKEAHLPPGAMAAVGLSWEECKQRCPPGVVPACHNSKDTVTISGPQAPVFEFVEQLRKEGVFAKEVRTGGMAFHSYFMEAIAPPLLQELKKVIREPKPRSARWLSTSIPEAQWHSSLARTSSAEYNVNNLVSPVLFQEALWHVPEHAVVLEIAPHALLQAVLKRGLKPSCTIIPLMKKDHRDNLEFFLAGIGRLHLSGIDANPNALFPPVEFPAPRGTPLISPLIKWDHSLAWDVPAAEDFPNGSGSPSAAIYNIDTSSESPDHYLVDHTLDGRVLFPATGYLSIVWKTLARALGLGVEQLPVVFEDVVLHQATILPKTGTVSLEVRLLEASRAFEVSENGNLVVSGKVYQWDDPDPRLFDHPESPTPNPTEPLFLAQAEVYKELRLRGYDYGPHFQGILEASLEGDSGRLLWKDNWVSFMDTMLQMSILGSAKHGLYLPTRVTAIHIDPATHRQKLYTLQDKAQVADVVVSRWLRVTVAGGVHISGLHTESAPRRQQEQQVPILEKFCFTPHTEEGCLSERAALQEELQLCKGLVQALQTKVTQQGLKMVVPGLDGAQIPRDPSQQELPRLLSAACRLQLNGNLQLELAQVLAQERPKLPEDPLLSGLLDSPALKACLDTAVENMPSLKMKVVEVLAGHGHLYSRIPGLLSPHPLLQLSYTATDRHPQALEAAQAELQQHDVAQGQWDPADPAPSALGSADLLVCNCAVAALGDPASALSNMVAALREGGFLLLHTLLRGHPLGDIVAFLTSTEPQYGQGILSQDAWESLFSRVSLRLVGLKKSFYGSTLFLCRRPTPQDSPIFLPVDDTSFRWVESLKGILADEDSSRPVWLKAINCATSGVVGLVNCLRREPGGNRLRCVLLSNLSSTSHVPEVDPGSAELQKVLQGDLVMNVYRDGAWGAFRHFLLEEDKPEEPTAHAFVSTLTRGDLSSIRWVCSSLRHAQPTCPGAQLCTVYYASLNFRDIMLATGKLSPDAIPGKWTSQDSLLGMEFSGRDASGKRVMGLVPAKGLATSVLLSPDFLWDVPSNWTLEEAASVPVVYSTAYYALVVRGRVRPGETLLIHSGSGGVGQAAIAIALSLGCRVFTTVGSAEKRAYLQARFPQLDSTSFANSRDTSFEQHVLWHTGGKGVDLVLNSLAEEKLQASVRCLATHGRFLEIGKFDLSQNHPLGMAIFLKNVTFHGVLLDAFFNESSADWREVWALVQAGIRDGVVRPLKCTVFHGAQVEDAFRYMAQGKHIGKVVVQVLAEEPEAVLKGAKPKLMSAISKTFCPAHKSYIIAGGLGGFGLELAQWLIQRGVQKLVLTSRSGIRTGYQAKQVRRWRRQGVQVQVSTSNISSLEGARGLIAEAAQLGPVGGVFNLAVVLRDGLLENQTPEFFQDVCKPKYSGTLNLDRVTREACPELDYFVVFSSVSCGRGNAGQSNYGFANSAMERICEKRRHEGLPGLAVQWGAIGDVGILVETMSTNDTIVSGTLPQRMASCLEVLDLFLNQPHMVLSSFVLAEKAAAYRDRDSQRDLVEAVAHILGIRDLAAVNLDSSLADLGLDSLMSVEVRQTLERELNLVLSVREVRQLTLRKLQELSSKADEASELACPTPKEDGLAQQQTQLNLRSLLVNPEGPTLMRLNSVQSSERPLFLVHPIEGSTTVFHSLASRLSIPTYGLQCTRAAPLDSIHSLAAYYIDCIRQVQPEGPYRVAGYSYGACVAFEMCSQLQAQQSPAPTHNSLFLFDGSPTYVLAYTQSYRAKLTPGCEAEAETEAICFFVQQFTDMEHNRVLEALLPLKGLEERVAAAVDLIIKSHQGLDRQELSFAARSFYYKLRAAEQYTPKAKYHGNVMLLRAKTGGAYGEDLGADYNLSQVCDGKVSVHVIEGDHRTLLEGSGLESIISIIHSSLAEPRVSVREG
A short description of assay [8]: viability of HCT116 lacking mutant beta-catenin – cell-based, human colon tumor, dose response (AID 1045).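 Note: HCT116 colon tumor cells with beta catenin knocked out; cells exposed to compound for 60 hours.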 The class given is functional.
Another assay concerns the target Mu-type opioid receptor (Homo sapiens, UniProt P35372). The assay can be described thus: HTS Image-Based Screen for Agonists of the MOR Receptor. [Related pubchem assays (depositor defined):AID1777, AID1785, AID1786, AID2133]. The assay is classed as functional.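 Note: imaging of beta-arrestin GFP recruitment into spots after receptor activation.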
Assay [9] is described as follows: reduction of Shn3 3'UTR-driven luciferase in osteoblasts – cell-based, Clone20 osteoblasts, firefly luciferase, cherry-picked, dose response (AID 624132).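 Note: firefly luciferase luminescence from reporter carrying the Shn3 3'UTR in osteoblasts.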 The assay is classed as functional.
In assay [10] the target is T2, Kappa-type opioid receptor (Homo sapiens, UniProt P41145). The class given is functional.
T2 sequence (P41145 whole entry): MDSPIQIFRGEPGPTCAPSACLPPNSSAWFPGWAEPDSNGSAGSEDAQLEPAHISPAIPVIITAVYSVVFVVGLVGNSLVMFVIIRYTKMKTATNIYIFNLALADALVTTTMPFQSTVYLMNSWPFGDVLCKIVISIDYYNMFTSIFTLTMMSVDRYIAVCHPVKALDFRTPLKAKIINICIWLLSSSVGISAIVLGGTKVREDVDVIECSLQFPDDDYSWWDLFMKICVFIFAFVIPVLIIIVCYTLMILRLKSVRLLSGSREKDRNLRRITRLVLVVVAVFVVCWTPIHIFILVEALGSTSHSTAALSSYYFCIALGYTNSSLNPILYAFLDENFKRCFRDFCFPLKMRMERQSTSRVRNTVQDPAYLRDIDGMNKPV
Assay [11] can be described thus: viability of PTEN-deleted HCT116 cells – cell-based, HCT116 PTEN knockout, dose response (AID 1047).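 Note: HCT116 colon tumor cells with PTEN knocked out; cells exposed to compound for 60 hours before readout; potency for loss of cell viability measured by luminescence.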 The class given is functional.
For assay [12], the target named is T3, Delta-type opioid receptor (Homo sapiens, UniProt P41143). Kind of assay: HTS Image-Based Screen for Agonists of the DOR Receptor. [Related pubchem assays (depositor defined):AID1777, AID1786, AID2133]. The class given is functional.
T3 sequence (P41143 whole entry): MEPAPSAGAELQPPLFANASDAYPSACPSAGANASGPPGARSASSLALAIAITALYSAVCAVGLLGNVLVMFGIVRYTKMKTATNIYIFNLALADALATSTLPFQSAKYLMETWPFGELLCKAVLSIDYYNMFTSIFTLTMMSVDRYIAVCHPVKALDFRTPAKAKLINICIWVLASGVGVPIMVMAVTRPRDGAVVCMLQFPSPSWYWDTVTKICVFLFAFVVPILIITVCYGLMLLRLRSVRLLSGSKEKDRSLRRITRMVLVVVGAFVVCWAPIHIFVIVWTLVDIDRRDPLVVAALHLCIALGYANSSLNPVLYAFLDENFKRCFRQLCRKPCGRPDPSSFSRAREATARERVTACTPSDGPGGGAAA
In assay [13] the target is T3, Delta-type opioid receptor. The assay can be described thus: HTS Image-Based Screen for Antagonists of the DOR Receptor. [Related pubchem assays (depositor defined):AID1777, AID1785, AID1786, AID2133]. The assay is classed as functional.
The target of the next assay is Beta-galactosidase (Escherichia coli, UniProt Q8VNN2). The class given is functional.
The target in assay [14] is T2, Kappa-type opioid receptor. The class given is functional. The source holds these as a separate data set.
The next assay deals with Vero. Kind of assay: viability of Vero cells under compound – cytotoxicity control for flavivirus capping enzyme inhibitors (AID 588742). The assay is classed as functional. The following applies: Chlorocebus sabaeus.
The target in assay [15] is T4, Microphthalmia-associated transcription factor (Homo sapiens, UniProt O75030).
T4 sequence (O75030 whole entry): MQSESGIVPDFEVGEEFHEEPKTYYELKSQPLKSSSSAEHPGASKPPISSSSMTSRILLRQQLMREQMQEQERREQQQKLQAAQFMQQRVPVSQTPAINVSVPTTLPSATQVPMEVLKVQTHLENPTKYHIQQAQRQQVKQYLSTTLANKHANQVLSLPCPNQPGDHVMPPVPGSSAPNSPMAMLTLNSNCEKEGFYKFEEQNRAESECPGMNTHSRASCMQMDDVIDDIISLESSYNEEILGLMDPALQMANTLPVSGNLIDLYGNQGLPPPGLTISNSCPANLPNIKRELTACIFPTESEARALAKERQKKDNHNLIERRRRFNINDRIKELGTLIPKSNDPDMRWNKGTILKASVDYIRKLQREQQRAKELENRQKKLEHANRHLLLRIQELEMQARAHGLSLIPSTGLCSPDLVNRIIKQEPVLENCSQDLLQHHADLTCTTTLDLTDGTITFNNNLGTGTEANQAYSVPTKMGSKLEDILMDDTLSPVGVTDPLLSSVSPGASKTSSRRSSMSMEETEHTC
Kind of assay: reducers of TRPM1 reporter luminescence, concentration series – cell-based, SK-MEL-5, cherry-picked, set 3, MITF inhibitor project, dose response (AID 493073).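 Note: SK-MEL-5 melanoma cells with luciferase driven by the MITF target TRPM1 promoter.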 The class given is functional.

Assay [16] has as its target T1, Fatty acid synthase. The assay can be described thus: inhibition of human FAS-TE enzyme activity – biochemical, kinetic fluorescence intensity, dose response (AID 624326).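 Note: rate of fluorescence rise from hydrolysis of a fluorogenic O-methyl fluorescein ester substrate.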 The class given is functional.
The target in assay [17] is Peroxisome proliferator-activated receptor gamma/Nuclear receptor coactivator 2 (Homo sapiens, UniProt P37231). The class given is functional.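 Note: agonist potency for raising coactivator recruitment to the receptor.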
For the next assay, the target named is T5, Caspase-6 (Homo sapiens, UniProt P55212).
T5 sequence (P55212 whole entry): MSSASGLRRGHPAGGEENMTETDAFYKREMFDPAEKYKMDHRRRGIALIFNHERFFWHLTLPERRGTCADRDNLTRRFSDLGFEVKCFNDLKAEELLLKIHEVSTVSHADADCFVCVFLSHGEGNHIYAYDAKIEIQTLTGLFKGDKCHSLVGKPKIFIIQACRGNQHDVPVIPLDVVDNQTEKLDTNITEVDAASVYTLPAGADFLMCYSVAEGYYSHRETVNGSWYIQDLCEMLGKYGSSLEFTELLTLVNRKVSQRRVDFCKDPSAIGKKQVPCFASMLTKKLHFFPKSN
The assay can be described thus: inhibition of CASP6 peptide cleavage – biochemical, VEID-R110 fluorescence, cherry-pick, dose response (AID 720632).

Assay [18] has as its target Peroxisome proliferator-activated receptor gamma/Nuclear receptor coactivator 1 (Homo sapiens, UniProt P37231). The class given is functional.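 Note: agonist potency as compounds enhance coactivator SRC-1 recruitment to PPARgamma.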
Assay [19] addresses Peroxisome proliferator-activated receptor gamma/Nuclear receptor coactivator 3 (Homo sapiens, UniProt P37231). The class given is functional.
The nature of assay [20]: NIH-3T3 fibroblast cytotoxicity, dose response, cytotoxicity control, cell-based, fluorescence, Alamar Blue, secondary assay (AID 2327).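 Note: NIH-3T3 mouse fibroblasts cultured with fluconazole at 8 µg/mL.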 The class given is functional.
A short description of assay [21]: fluconazole-exposed Candida albicans growth modulators – fluorescence, retest, confirmation (AID 2467). The assay is classed as functional, cell-based.
For assay [22], the target named is T6, Serine/threonine-protein phosphatase (Candida dubliniensis (strain CD36 / CBS 7987 / NCPF 3949 / NRRLY-17841) (Yeast), UniProt B9W6M3).
T6 sequence (B9W6M3 whole entry): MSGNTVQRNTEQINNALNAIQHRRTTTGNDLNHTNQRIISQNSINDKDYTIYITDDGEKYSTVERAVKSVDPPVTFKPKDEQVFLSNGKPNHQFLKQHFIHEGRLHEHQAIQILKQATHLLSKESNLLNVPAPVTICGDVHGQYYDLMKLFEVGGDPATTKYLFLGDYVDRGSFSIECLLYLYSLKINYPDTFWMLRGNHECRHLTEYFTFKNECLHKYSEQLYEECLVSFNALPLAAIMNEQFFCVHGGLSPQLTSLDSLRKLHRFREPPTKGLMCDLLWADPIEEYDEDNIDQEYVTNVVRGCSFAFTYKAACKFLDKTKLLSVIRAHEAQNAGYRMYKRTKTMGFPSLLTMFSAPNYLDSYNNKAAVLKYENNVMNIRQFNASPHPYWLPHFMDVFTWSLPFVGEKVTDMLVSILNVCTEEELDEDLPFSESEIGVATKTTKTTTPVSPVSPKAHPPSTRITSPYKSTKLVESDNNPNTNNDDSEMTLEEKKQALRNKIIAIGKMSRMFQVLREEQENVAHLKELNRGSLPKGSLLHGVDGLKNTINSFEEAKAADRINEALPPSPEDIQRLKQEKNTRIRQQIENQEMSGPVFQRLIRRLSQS
The assay can be described thus: blockers of CaCl2-induced CDRE-lacZ signaling – S. cerevisiae, luminescence, secondary, dose response (AID 2388).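 Note: yeast reporter cells carrying a calcineurin-responsive lacZ construct stimulated with calcium chloride; luminescent beta-galactosidase reporter signal in whole cells rather than isolated phosphatase activity; potency for inhibition where a drop in reporter signal means calcineurin blockade.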 The class given is functional, cell-based.

Assay [23] addresses ATP-dependent molecular chaperone HSP82 (Candida albicans (strain WO-1) (Yeast), UniProt C4YTQ8). Kind of assay: steroid-induced GRE reporter decrease in yeast – S. cerevisiae, luminescence, Hsp90 inhibitor project, dose response (AID 2400).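 Note: beta-galactosidase luminescence from glucocorticoid response element reporter as proxy for Hsp90 function; inhibitor potency where signal loss means Hsp90 inhibition.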 The assay is classed as functional, cell-based.
Assay [24] is described as follows: NIH3T3 cell viability loss – ATP luminescence, mouse fibroblasts, counter-screen, dose response (AID 2010).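 Note: cells exposed to compound for about 90 hours before reading.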 The assay is classed as functional, cell-based.
Assay [25] can be described thus: THP-1 cell cytotoxicity, dose response, cytotoxicity control for non-replicating M. tuberculosis project (AID 489025). The class given is functional.
A further assay can be described thus: cells. The assay is classed as functional.
The nature of assay [26]: Trypanosoma cruzi growth suppression in host cells – NIH3T3 host cells, beta-gal luminescence, confirmation (AID 2044).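 Note: intracellular parasites grown in NIH/3T3 mouse fibroblasts as host cells; luminescent beta-galactosidase reporter signal from transgenic T. cruzi replicating inside host cells; inhibitors lower the luminescence signal.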 The assay is classed as functional, cell-based.

The structures appear in SMILES notation. The source made the active and inactive calls.

Chain of ATP-dependent molecular chaperone HSP82 (C4YTQ8 whole entry): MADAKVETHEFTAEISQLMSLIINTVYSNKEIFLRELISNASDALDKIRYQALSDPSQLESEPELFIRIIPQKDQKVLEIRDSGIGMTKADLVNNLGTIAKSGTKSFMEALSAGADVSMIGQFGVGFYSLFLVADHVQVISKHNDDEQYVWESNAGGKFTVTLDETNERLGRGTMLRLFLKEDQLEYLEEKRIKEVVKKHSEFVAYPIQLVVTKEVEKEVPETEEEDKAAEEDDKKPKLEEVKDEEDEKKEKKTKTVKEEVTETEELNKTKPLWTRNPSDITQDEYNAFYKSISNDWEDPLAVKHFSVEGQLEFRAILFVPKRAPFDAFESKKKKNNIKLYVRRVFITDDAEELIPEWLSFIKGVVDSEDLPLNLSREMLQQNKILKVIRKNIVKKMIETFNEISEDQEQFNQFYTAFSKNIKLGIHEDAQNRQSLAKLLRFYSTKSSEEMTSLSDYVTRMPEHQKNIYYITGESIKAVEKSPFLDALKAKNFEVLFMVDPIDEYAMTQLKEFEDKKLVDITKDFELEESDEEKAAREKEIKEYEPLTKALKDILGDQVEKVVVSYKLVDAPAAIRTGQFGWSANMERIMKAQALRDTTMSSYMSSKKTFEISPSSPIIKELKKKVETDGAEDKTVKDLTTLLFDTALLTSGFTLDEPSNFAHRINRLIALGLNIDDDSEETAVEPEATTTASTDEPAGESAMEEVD
Chain of Mu-type opioid receptor (P35372 whole entry): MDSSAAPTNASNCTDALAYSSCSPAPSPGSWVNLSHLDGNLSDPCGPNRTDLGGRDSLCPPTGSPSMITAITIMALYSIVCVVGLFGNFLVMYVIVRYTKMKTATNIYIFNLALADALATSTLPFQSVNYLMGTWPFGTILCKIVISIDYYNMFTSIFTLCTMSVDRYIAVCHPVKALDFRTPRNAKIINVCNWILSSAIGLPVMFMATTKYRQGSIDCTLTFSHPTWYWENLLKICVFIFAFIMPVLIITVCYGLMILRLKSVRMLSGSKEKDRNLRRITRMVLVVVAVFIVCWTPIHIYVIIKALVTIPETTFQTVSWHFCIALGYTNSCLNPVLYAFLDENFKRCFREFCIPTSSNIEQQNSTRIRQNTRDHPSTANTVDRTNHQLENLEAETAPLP

The IC50 is the concentration at which inhibition is half-maximal. Usually AC50 stands for the midpoint of the concentration-response curve, whichever way the signal moves. In the case of `COc1ccc2c3c([nH]c2c1)C(C)NCC3` (stereo unspecified), the IC50 in assay [1] is 17.9 µM (active); at Prothrombin it was 13.7 µM (active); in assay [3] it was > 100 µM (inactive). For the same compound, the AC50 in assay [2] is 2.99 µM (active).

For the compound `O=C1c2ccccc2C(=O)C1c1ccccn1`, the values for the concentration at half-maximal activity (AC50) (in assay [2]; with HeLa) were 9.62 µM (active) and 139 µM (active), respectively.

By CC50 is commonly meant the concentration giving 50% cytotoxicity. A word on the EC50: it is the midpoint of the concentration-response curve. Take `CCC(=O)OCCNc1cc(Sc2nc3ccccc3[nH]2)c2nonc2c1[N+](=O)[O-]`: the AC50 is 27.4 µM (active) in assay [4], 8.68 µM (active) in assay [5], 1.09 µM (active) in [9] and 9.14 µM (active) in assay [15]. Moreover, the CC50 in assay [6] is 14.7 µM (active); in the assay on Vero, 19 µM (active). Also, the IC50 was 2.04 µM (active) at Fatty acid synthase [7]; 2.56 µM (active) in [10]; > 32 µM (inactive) in assay [13]; 19.1 µM in assay [14]; 0.845 µM (active) on Fatty acid synthase [16]. Besides, the EC50 in assay [8] is 5.01 µM (active); on Mu-type opioid receptor, > 32 µM (inactive); in assay [11], 6.88 µM (active); in assay [12] it was > 32 µM (inactive); at Beta-galactosidase, > 31.5 µM (inactive).

For `Oc1ccc(NCc2cccc(OCc3ccc(F)cc3)c2)cc1`, the CC50 (in [6]; in the assay with Vero) was > 40 µM (active) throughout. Also, the concentration giving a half-maximal response (EC50) in assay [17], in assay [18] and in assay [19] was > 79.4 µM (not active) throughout. Besides, the AC50 at Caspase-6 is 6.29 µM (active).

`O=C(NCc1ccc(F)cc1)C(c1ccccc1)N(CC1CCCO1)C(=O)Cn1nnc2ccccc21` (stereo unspecified): the EC50 is > 150 µM (inactive) in assay [20], 1.07 µM (active) in assay [21], > 180 µM (inactive) in assay [22] and > 150 µM (inactive) in assay [23].

As to `COc1ccccc1OCC(=O)N/N=C/C=C/c1ccc([N+](=O)[O-])o1`, the EC50 in assay [20] is 51.2 µM (active); in assay [24] it was 14.2 µM (active); in assay [21], 0.654 µM (active); in assay [22], > 180 µM (inactive); in assay [23], > 160 µM (inactive); in assay [26] it was 0.105 µM (active). The CC50 in assay [25] is 23 µM (active). In the assay “cells”, the half-inhibitory concentration (IC50) is 2.27 µM (active). In addition, the half-maximal activity concentration (AC50) in assay [15] was 7.39 µM (active).
